How the values were obtained:
Bacteroides fragilis = assay: Expected efficacy of anti-bacterial agents against various bacteria (Tables 5 and 6); details: Gram: anaer
Clostridium difficile = assay: as above; details: Gram: anaer
Clostridium perfringens = details: expected efficacy; Clostridium perfringens; Gram: anaer
Chlamydia pneumoniae = assay: Expected efficacy of anti-bacterial agents against various bacteria (Tables 5 and 6); details: Gram: n/a
Chlamydia psittaci = details: expected efficacy; Chlamydia psittaci; Gram: n/a
Chlamydia trachomatis = assay: Expected efficacy of anti-bacterial agents against various bacteria (Tables 5 and 6); details: Gram: n/a
Mycoplasma pneumoniae = assay: as above; details: Gram: n/a
Acinetobacter baumannii = assay: as above; details: Gram: neg
[1] = tested on: Acinetobacter calcoaceticus; assay: as above; details: Gram: neg
Acinetobacter lwoffii = assay: as above; details: Gram: neg
Bartonella bacilliformis = assay: as above; details: Gram: neg
Bordetella pertussis = assay: as above; details: Gram: neg
Brucella species = details: expected efficacy; Brucella species; Gram: neg
Campylobacter jejuni = assay: Expected efficacy of anti-bacterial agents against various bacteria (Tables 5 and 6); details: Gram: neg
Citrobacter diversus = assay: as above; details: Gram: neg
Citrobacter freundii = assay: as above; details: Gram: neg
Enterobacter aerogenes = assay: as above; details: Gram: neg
Enterobacter cloacae = assay: as above; details: Gram: neg
Enterobacter sakazakii = assay: as above; details: Gram: neg
Escherichia coli = assay: as above; details: Gram: neg
Francisella tularensis = details: expected efficacy; Francisella tularensis; Gram: neg
Haemophilus influenzae = assay: Expected efficacy of anti-bacterial agents against various bacteria (Tables 5 and 6); details: Gram: neg
[2] = tested on: Klebsiella (Calymmatobacterium) granulomatis; assay: as above; details: Gram: neg
Klebsiella oxytoca = assay: as above; details: Gram: neg
Klebsiella pneumoniae = assay: as above; details: Gram: neg
Legionella pneumophila = details: expected efficacy; Legionella pneumophila; Gram: neg
Moraxella catarrhalis = assay: Expected efficacy of anti-bacterial agents against various bacteria (Tables 5 and 6); details: Gram: neg
Morganella morganii = assay: as above; details: Gram: neg
Neisseria meningitidis = assay: as above; details: Gram: neg
Proteus mirabilis = assay: as above; details: Gram: neg
Proteus vulgaris = assay: as above; details: Gram: neg
Providencia rettgeri = assay: as above; details: Gram: neg
Providencia stuartii = assay: as above; details: Gram: neg
Pseudomonas aeruginosa = assay: as above; details: Gram: neg
Pseudomonas fluorescens = assay: as above; details: Gram: neg
Rickettsiae = details: expected efficacy; Rickettsiae; Gram: neg
Serratia marcescens = assay: Expected efficacy of anti-bacterial agents against various bacteria (Tables 5 and 6); details: Gram: neg
Vibrio cholerae = assay: as above; details: Gram: neg
Corynebacterium jeikeium = assay: as above; details: Gram: pos
Enterococcus faecalis = assay: as above; details: Gram: pos
Enterococcus faecium = assay: as above; details: Gram: pos
[3] = tested on: Methicillin resistant staph aureus (MRSA); assay: as above; details: Gram: pos
[4] = tested on: Staphylococcus aureus (MSSA); assay: as above; details: Gram: pos
[5] = tested on: Staphylococcus epidermidis; assay: as above; details: Gram: pos
Streptococcus agalactiae = assay: as above; details: Gram: pos
Streptococcus pneumoniae = assay: as above; details: Gram: pos
Streptococcus pyogenes = assay: as above; details: Gram: pos
[6] = tested on: Haemophilus parainfluenzae; assay: as above; details: Gram: neg
Neisseria gonorrhoeae = assay: as above; details: Gram: neg
Salmonella typhi = assay: as above; details: Gram: neg
Shigella boydii = assay: as above; details: Gram: neg
Shigella dysenteriae = assay: as above; details: Gram: neg
Shigella flexneri = assay: as above; details: Gram: neg
Shigella sonnei = assay: as above; details: Gram: neg
Yersinia pestis = details: expected efficacy; Yersinia pestis; Gram: neg
Haemophilus ducreyi = assay: Expected efficacy of anti-bacterial agents against various bacteria (Tables 5 and 6); details: Gram: neg
[7] = tested on: Corynebacterium urealyticum; assay: as above; details: Gram: pos
Diphtheroids = assay: as above; details: Gram: pos
Peptostreptococcus = assay: as above; details: Gram: pos
[8] = tested on: Viridans group streptococci; assay: as above; details: Gram: pos

Measured: Efficacy of various antibiotic agents

CC[C@H]1OC(=O)[C@H](C)[C@@H](O[C@H]2C[C@@](C)(OC)[C@@H](O)[C@H](C)O2)[C@H](C)[C@@H](O[C@@H]2O[C@H](C)C[C@H](N(C)C)[C@H]2O)[C@](C)(O)C[C@@H](C)CN(C)[C@H](C)[C@@H](O)[C@]1(C)O [Azithromycin]
yes: Chlamydia pneumoniae | Chlamydia psittaci | Chlamydia trachomatis | Mycoplasma pneumoniae | Bartonella bacilliformis | Bordetella pertussis | Campylobacter jejuni | Haemophilus influenzae | Legionella pneumophila | Moraxella catarrhalis | Neisseria meningitidis | Rickettsiae | Vibrio cholerae | [4] | [5] | Streptococcus agalactiae | Streptococcus pneumoniae | Streptococcus pyogenes
not listed: [6] | Neisseria gonorrhoeae | Salmonella typhi | Shigella boydii | Shigella dysenteriae | Shigella flexneri | Shigella sonnei | Yersinia pestis | Haemophilus ducreyi | [7] | Diphtheroids | Peptostreptococcus | [8]
no: all other assays above

O=C(O)c1cn(C2CC2)c2cc(N3CCNCC3)c(F)cc2c1=O [Ciprofloxacin]
no: Bacteroides fragilis | Corynebacterium jeikeium | Enterococcus faecium | [3]
not listed: Clostridium difficile | Clostridium perfringens | Chlamydia psittaci | Chlamydia trachomatis | Mycoplasma pneumoniae | Acinetobacter baumannii | [1] | Acinetobacter lwoffii | Bordetella pertussis | Brucella species | Enterobacter cloacae | Enterobacter sakazakii | [2] | Enterococcus faecalis | [4] | Streptococcus agalactiae | Streptococcus pneumoniae | Streptococcus pyogenes | Haemophilus ducreyi | [7] | Diphtheroids | Peptostreptococcus | [8]
yes: all other assays above

NC[C@H]1O[C@H](O[C@H]2[C@H](O)[C@@H](O[C@H]3O[C@H](CO)[C@@H](O)[C@H](N)[C@H]3O)[C@H](N)C[C@@H]2N)[C@H](N)C[C@@H]1O [Tobramycin]
yes: Campylobacter jejuni | Citrobacter diversus | Citrobacter freundii | Enterobacter aerogenes | Enterobacter cloacae | Enterobacter sakazakii | Escherichia coli | Haemophilus ducreyi | Haemophilus influenzae | [2] | Klebsiella oxytoca | Klebsiella pneumoniae | Moraxella catarrhalis | Proteus mirabilis | Proteus vulgaris | Pseudomonas aeruginosa | Pseudomonas fluorescens | Serratia marcescens | Shigella boydii | Shigella dysenteriae | Shigella flexneri | Shigella sonnei | Yersinia pestis
not listed: Bartonella bacilliformis | Brucella species | Francisella tularensis | Morganella morganii | Providencia rettgeri | Providencia stuartii | Rickettsiae | [6] | Salmonella typhi
no: all other assays above
